# Laboratory results as given in patent US8889887B2, “Pentamethine cyanine fluorescent dyes, preparation methods and uses thereof” (Dalian University of Technology, priority 2011, dated 2014).
# Several values for one entry are separate records, joined by “and”; a condition that tells them apart may be missing. Identical values can stand only once. Counter-ions that a name gives are not always drawn.
# What was measured:
# MCF-7 cells = assay: Fluorescence imaging of stained cells under laser confocal scanning microscopy; assay type: cell-based
# Procedure: The compounds 4 and 7 (12 μL, 5 μM) in PBS buffer were added into a 6-well plate with incubated MCF-7 cells, and then the plate was incubated for 30 minutes in a cell incubator of 37° C. and 5% CO2. The plate was rinsed with PBS for 5 min×3 times, fresh culture medium was added thereto, and the cells were observed under laser confocal scanning microscopy (Leica, TCS-SP2, Germany). Typical region was selected, the traditional Cy5 was excited at 633 nm and 7 was excited at 514 nm, the cells were observed under oil immersion lens (1000×) for three times.
# (§1) MCF-7 cells and Hela cells were inoculated on a 6-well plate and cultured for 24 hours at 37° C. and 5% CO2. Then, the dye was added in a final concentration of 5 μM, and the plate was incubated at 37° C. for 30 min. The culture medium was moved off, and the plate was rinsed with PBS for two times. Fresh culture medium 1200 μL was added and the fluorescence was excited.
# as §1, with “Then, H2O2 133.3 µL was added in a final concentration of 1 mM/L, and the plate was incubated at 37° C. for 2 hours. The culture medium was moved off, and the plate was rinsed with PBS for two times. Fresh culture medium 1200 μL was added and then” for “Then,”, “μM,” for “μM, and”
# MCF-7 cells and Hela cells were inoculated on a 6-well plate and cultured for 24 hours at 37° C. and 5% CO2. The culture medium was moved off, and the plate was rinsed with PBS for two times. Appropriate amount of 70% ethanol was added and then the plate was incubated at 37° C. for 30 min. Ethanol for fixing was moved off, and the plate was rinsed with PBS for two times. PBS 1200 μL was added and then the dye was added in a final concentration of 5 μM, the plate was incubated at 37° C. for 30 min and the fluorescence was excited.
# [1] = Viscosity experiments: absorption and emission spectra in glycerol-ethanol mixtures; assay type: physicochemical
# Procedure: (§2) Firstly, DMSO solutions of 4 and 7 having a concentration of 1.0×10^−3 M were prepared, respectively. The stock solution of […] was added into 10 mL glycerol-ethanol mixture, and ultrasonicated to remove bubbles. The solution stayed for 1 hour, and then absorption and emission spectra therefore were measured by using UV-visible spectrophotometer and fluorescence spectrophotometer, and fluorescence lifetime of solution with different viscosity was detected as well. UV-visible spectrophotometer, model: Hp8453; fluorescence spectrophotometer model: FP-6500; Fluorescence lifetime equipment: Horiba Jobin Yvon Fluoromax-4-p.
# (§3) Glycerol-ethanol mixture was a mixture of glycerol and ethanol, Vglycerol: Vethanol were 1:9, 2:8, 3:7, 4:6, 5:5, 6:4, 7:3, 8:2 and 9:1.
# [2] = Fluorescence lifetime in solutions with different viscosity; assay type: physicochemical; conditions: FIG. 5A, 1 μM
# Procedure: as §2, §3
# [3] = UV absorption and fluorescence emission spectra in different solvents; assay type: physicochemical; conditions: for λabs1 maximum absorption wavelength / λabs2 maximum absorption wavelength / λem1 maximum emission wavelength / λem2 maximum emission wavelength: 1 μM; for Φ1 fluorescence quantum yield / Φ2 fluorescence quantum yield: reference Rhodamine B in ethanol
# Procedure: Firstly, stock solutions of 4 and 7 in DMSO were prepared respectively. Then sample solutions of 1 μM were prepared by diluting the mother liquors with corresponding chromatography grade solvent. UV absorption and fluorescence emission spectra of the sample solutions in different solvents were measured at room temperature, the results were shown in FIGS. 1A and 1B, respectively.
compound,measurement,setting,value
"CCN1/C(=C/C=C(C=C(C#N)C#N)/C=C/C2=[N+](CC)c3ccccc3C2(C)C)C(C)(C)c2ccccc21 [compound 7, 1,5-di(1-N-ethyl-3,3-dimethyl-2,3-H— lindoline)-3-(2,2-dicyanovinyl)-1,3,5-pentatriene chloride quaternary ammonium salt cyanine dye]",ratio value of fluorescence (red 665 / green 565 nm channel),MCF-7 cells; MCF-7 cells stood 4 hours at room temperature after incubation (dying),ratio value of the probe was between (1) and (2)
same,ratio value of fluorescence (red 665 / green 565 nm channel),"MCF-7 cells; MCF-7 cells treated with hydrogen peroxide (1 mM), apoptosis induced",ratio value was increased
same,ratio value of fluorescence (red 665 / green 565 nm channel),"MCF-7 cells; normal live MCF-7 cells, 5 μM, 30 minutes",ratio value was small
same,UV absorption with variation of solution viscosity,"[1]; FIG. 4A, 1 μM",kept constant
same,sensitivity of fluorescence intensity to solvent viscosity,[1]; glycerol-ethanol mixtures,quite sensitive to solvent viscosity
same,fluorescence lifetime at 665 nm with increase of solution viscosity,[2],obviously elongated
same,Δλ1 Stokes Shift (λem1 − λabs1),[3]; DMSO,47 nm
same,Δλ2 Stokes Shift (λem2 − λabs2),[3]; DMSO,31 nm
same,Δλ3 Stokes Shift (λem2 − λabs1),[3]; DMSO,148 nm
same,ε1 molar extinction coefficient,[3]; DMSO,45000 L/cm/mol
same,ε2 molar extinction coefficient,[3]; DMSO,118200 L/cm/mol
same,λabs1 maximum absorption wavelength,[3]; DMSO,522 nm
same,λabs2 maximum absorption wavelength,[3]; DMSO,639 nm
same,λem1 maximum emission wavelength,[3]; DMSO,569 nm
same,λem2 maximum emission wavelength,[3]; DMSO,670 nm
same,Φ1 fluorescence quantum yield,[3]; DMSO,0.0057
same,Φ2 fluorescence quantum yield,[3]; DMSO,0.0113
same,Δλ1 Stokes Shift (λem1 − λabs1),[3]; acetonitrile,48 nm
same,Δλ2 Stokes Shift (λem2 − λabs2),[3]; acetonitrile,25 nm
same,Δλ3 Stokes Shift (λem2 − λabs1),[3]; acetonitrile,148 nm
same,ε1 molar extinction coefficient,[3]; acetonitrile,59400 L/cm/mol
same,ε2 molar extinction coefficient,[3]; acetonitrile,112000 L/cm/mol
same,λabs1 maximum absorption wavelength,[3]; acetonitrile,513 nm
same,λabs2 maximum absorption wavelength,[3]; acetonitrile,635 nm
same,λem1 maximum emission wavelength,[3]; acetonitrile,561 nm
same,λem2 maximum emission wavelength,[3]; acetonitrile,661 nm
same,Φ1 fluorescence quantum yield,[3]; acetonitrile,0.0017
same,Φ2 fluorescence quantum yield,[3]; acetonitrile,0.0019
same,Δλ1 Stokes Shift (λem1 − λabs1),[3]; dichloromethane,56 nm
same,Δλ2 Stokes Shift (λem2 − λabs2),[3]; dichloromethane,16 nm
same,Δλ3 Stokes Shift (λem2 − λabs1),[3]; dichloromethane,160 nm
same,ε1 molar extinction coefficient,[3]; dichloromethane,49700 L/cm/mol
same,ε2 molar extinction coefficient,[3]; dichloromethane,113500 L/cm/mol
same,λabs1 maximum absorption wavelength,[3]; dichloromethane,512 nm
same,λabs2 maximum absorption wavelength,[3]; dichloromethane,656 nm
same,λem1 maximum emission wavelength,[3]; dichloromethane,568 nm
same,λem2 maximum emission wavelength,[3]; dichloromethane,672 nm
same,Φ1 fluorescence quantum yield,[3]; dichloromethane,0.0016
same,Φ2 fluorescence quantum yield,[3]; dichloromethane,0.006
same,Δλ1 Stokes Shift (λem1 − λabs1),[3]; ethanol,56 nm
same,Δλ2 Stokes Shift (λem2 − λabs2),[3]; ethanol,27 nm
same,"Δλ3 Stokes Shift (λem2 − λabs1), pseudo-Stokes Shift",[3]; ethanol,158 nm
same,ε1 molar extinction coefficient,[3]; ethanol,53100 L/cm/mol
same,ε2 molar extinction coefficient,[3]; ethanol,125600 L/cm/mol
same,λabs1 maximum absorption wavelength,[3]; ethanol,510 nm
same,λabs2 maximum absorption wavelength,[3]; ethanol,641 nm
same,λem1 maximum emission wavelength,[3]; ethanol,566 nm
same,λem2 maximum emission wavelength,[3]; ethanol,668 nm
same,Φ1 fluorescence quantum yield,[3]; ethanol,0.0022
same,Φ2 fluorescence quantum yield,[3]; ethanol,0.0048
same,sensitivity to solvent polarity,[3]; low-viscosity solvents of different polarity,insensitive to solvent polarity
same,Δλ1 Stokes Shift (λem1 − λabs1),[3]; methanol,59 nm
same,Δλ2 Stokes Shift (λem2 − λabs2),[3]; methanol,25 nm
same,Δλ3 Stokes Shift (λem2 − λabs1),[3]; methanol,156 nm
same,ε1 molar extinction coefficient,[3]; methanol,49000 L/cm/mol
same,ε2 molar extinction coefficient,[3]; methanol,122000 L/cm/mol
same,λabs1 maximum absorption wavelength,[3]; methanol,509 nm
same,λabs2 maximum absorption wavelength,[3]; methanol,636 nm
same,λem1 maximum emission wavelength,[3]; methanol,568 nm
same,λem2 maximum emission wavelength,[3]; methanol,665 nm
same,Φ1 fluorescence quantum yield,[3]; methanol,0.0022
same,Φ2 fluorescence quantum yield,[3]; methanol,0.0031
same,"absorption peak, longer wavelength",[3]; solvent not stated,655 nm
same,"absorption peak, shorter wavelength",[3]; solvent not stated,510 nm
same,"emission peak, longer wavelength",[3]; solvent not stated,668 nm and 665 nm
same,"emission peak, shorter wavelength",[3]; solvent not stated,565 nm
same,Δλ1 Stokes Shift (λem1 − λabs1),[3]; water,50 nm
same,Δλ2 Stokes Shift (λem2 − λabs2),[3]; water,28 nm
same,Δλ3 Stokes Shift (λem2 − λabs1),[3]; water,135 nm
same,ε1 molar extinction coefficient,[3]; water,31000 L/cm/mol
same,ε2 molar extinction coefficient,[3]; water,52400 L/cm/mol
same,λabs1 maximum absorption wavelength,[3]; water,520 nm
same,λabs2 maximum absorption wavelength,[3]; water,627 nm
same,λem1 maximum emission wavelength,[3]; water,570 nm
same,λem2 maximum emission wavelength,[3]; water,655 nm
same,Φ1 fluorescence quantum yield,[3]; water,0.0006
same,Φ2 fluorescence quantum yield,[3]; water,0.0028
